From patent EP0555938A1, “Use of phenoxyacetate derivatives for the restoration of neural function” (Albert ROLLAND S.A., priority 1992, dated 1993)

Columns and labels:
nerf sciatique [1] = assay: Regeneration of the sciatic nerve after exposure to cold (plantar pain perception, Randal et Sellito apparatus); assay type: in vivo, rats Charles RIVER; settings: 500 mg/kg P.U/jour
Procedure: L'étude est menée sur des lots de rats Charles RIVER (100-110 g), anesthésiés au Mébubarbital (30 mg/kg I.P).
Le nerf sciatique droit est isolé et on en pratique la congélation sur une longueur de 3 mm, au niveau du tiers supérieur de la cuisse. Cette congélation est réalisée par applications successives, pendant 30 secondes chacune, de petites masses métalliques adaptées sur un champ d'artère et plongées, préalablement, dans l'azote liquide.
Le traitement par les produits à étudier est pratique à partir du premier jour après l'opération (J₁), jusqu'à J₁₂.
La regénération nerveuse éventuelle est recherchée par la mesure de la perception douloureuse au niveau plantaire des deux pattes postérieures des animaux, en utilisant l'appareil de Randal et Sellito qui permet l'évaluation de la sensibilité locale par application d'un poids progressivement augmenté en fonction du temps.
Les résultats sont exprimés à partir des mesures réalisées sur chaque patte, 4 heures après le dernier traitement. La valeur de la regénération de la sensibilité, donc de la regénération nerveuse, est représentée par la différence de réponse au test de la patte au nerf lésé par rapport à la patte contralatérale intacte.
L'analyse statistique est faite sur les deux séries de valeurs par analyse de Kruskall-Wallis et test U de Mann-Whitney. […]

nerf sciatique [2] = assay: Speed of sensory reinnervation after freezing lesion of the sciatic nerve (latency of somesthetic evoked potential); assay type: in vivo, rat whistar mâle; settings: 150 mg/kg, another batch of rats (Fig. 2)
Procedure: La vitesse de réinnervation sensitive après lésion du nerf sciatique et dégénérescence wallerienne a été étudiée chez le rat whistar mâle de 210 g ± 10 g. Le nerf sciatique droit a été lésé par congélation au moyen d'une cryode à cataracte portée à -170°C pendant 30 secondes en 3 points d'une même circonférence, située au tiers supérieur de la cuisse, à 90 ± 5 mm de la pénétration du nerf dans la région plantaire. Le nerf fémoris interne était excisé sur plusieurs cm. La récupération sensitive a été appréciée en mesurant la latence du potentiel évoqué somesthésique recueilli au niveau de l'aire primaire contralatérale et homolatérale, au moyen d'électrodes métalliques extra-durémériennes scéllées et laissées à demeure. La réponse était évoquée en stimulant le coussinet le plus interne de la sole plantaire droite au moyen d'un choc électrique de 5 mA délivré à courant constant pendant 2 ms toutes les 620 ms. Les réponses étaient moyennées de 500 à 2.000 fois et leurs latences mesurées avec une précision de ± 0,5 ms.
La latence de la réponse positive (P1) la plus précoce et à seuil le plus bas, a été mesurée et comparée chez trois groupes d'animaux aux jours J +25, +29, +33, +38, +43. Le groupe de témoins (n=11) a reçu par gavage 6 jours sur 7, 0,5 g/kg de gomme arabique. […]

Row | SMILES | réactivité (perception douloureuse au niveau plantaire, patte lésée vs patte contralatérale) (nerf sciatique [1]; sixth day after operation, oral, in water) | amélioration de la réactivité (regénération de la sensibilité) (nerf sciatique [1]; twelfth day after operation, 4 h after last treatment, oral (plate no. 3)) | modification dans la regénération des fibres nerveuses (nerf sciatique [2])
1 | CN(C)CCOC(=O)COc1ccc(Cl)cc1 [Méclofénoxate] | tendance à une meilleure réactivité | l'amélioration est significative | –
2 | CC(C)Nc1ncccn1 [isaxonine] | – | – | aucune modification sensible
